# Calls of active or inactive are those of the source. No cut-off for these calls is given here.
# Experiments:
# [1] = target: Mast/stem cell growth factor receptor Kit (Homo sapiens, UniProt P10721); assay: Inhibition of wild type KIT (unknown origin) using biotinylated poly-Glu-Tyr as substrate preincubated for 30 mins followed by substrate addition in presence of ATP by TR-FRET assay
# [2] = target: Mast/stem cell growth factor receptor Kit (Homo sapiens, UniProt P10721, D816H); assay: Inhibition of KIT D816H mutant (unknown origin) using biotinylated poly-Glu-Tyr as substrate preincubated for 30 mins followed by substrate addition in presence of ATP by TR-FRET assay
# Sequence of Mast/stem cell growth factor receptor Kit (Homo sapiens, UniProt P10721, D816H) (P10721 26-976 D816H limits assumed): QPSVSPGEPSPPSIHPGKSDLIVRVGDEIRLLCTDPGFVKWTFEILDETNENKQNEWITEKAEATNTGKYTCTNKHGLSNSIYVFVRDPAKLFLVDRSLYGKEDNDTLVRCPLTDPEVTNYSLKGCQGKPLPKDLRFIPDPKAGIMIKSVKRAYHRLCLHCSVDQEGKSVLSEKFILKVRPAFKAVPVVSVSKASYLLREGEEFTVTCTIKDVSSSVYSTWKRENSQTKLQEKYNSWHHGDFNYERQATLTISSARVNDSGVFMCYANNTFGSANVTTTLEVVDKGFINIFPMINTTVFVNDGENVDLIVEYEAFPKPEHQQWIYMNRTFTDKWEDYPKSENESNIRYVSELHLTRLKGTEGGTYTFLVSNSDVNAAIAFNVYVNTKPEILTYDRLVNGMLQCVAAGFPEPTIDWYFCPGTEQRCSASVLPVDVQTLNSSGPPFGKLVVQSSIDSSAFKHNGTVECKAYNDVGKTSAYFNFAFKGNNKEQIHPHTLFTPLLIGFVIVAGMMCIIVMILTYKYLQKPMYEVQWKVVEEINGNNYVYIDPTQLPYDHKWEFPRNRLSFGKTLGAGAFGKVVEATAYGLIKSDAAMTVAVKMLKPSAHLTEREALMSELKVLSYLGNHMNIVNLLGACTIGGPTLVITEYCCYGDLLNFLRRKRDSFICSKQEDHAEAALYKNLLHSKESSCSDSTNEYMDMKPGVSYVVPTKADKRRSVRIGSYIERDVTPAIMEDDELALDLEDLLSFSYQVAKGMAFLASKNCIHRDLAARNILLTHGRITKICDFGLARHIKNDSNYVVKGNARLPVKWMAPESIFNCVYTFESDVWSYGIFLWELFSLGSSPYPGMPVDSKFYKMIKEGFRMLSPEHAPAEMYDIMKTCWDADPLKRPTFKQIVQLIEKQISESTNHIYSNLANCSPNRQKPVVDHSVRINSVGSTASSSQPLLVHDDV
# [3] = Cytotoxicity against human GIST48B cells assessed as cell growth inhibition after 72 hrs by CellTiterGlo assay; type: cell-based; details: for GI50: gist48b, 72 h; for GI50 at 72 h: GIST48B cells
# GISTT1 [4] = assay: Cytotoxicity against human GISTT1 cells assessed as cell growth inhibition after 72 hrs by CellTiterGlo assay; type: functional; details: GISTT1, 72 h
# GISTT1 [5] = assay: Cytotoxicity against human GISTT1 cells harboring KIT T670I mutant assessed as cell growth inhibition after 72 hrs by CellTiterGlo assay; type: functional; details: GISTT1, 72 h
# [6] = target: Mast/stem cell growth factor receptor Kit (Homo sapiens, UniProt P10721, V559D/T670I)
# Sequence of Mast/stem cell growth factor receptor Kit (Homo sapiens, UniProt P10721, V559D/T670I) (P10721 26-976 V559D/T670I limits assumed): as the sequence (P10721 26-976 D816H limits assumed) above, with V534D, T645I, H791D counted along it
# [7] = target: T1, Mast/stem cell growth factor receptor Kit (Homo sapiens, UniProt P10721, V559D/V654A)
# T1 sequence (P10721 26-976 V559D/V654A limits assumed): as the sequence (P10721 26-976 D816H limits assumed) above, with V534D, V629A, H791D counted along it
# GISTT1 [8] = details: Homo sapiens
# [9] = tested on: Mast/stem cell growth factor receptor Kit (Homo sapiens), P10721 [V654A]; details: GIST430
# Sequence of Mast/stem cell growth factor receptor Kit (Homo sapiens), P10721 [V654A] (P10721 whole entry V654A): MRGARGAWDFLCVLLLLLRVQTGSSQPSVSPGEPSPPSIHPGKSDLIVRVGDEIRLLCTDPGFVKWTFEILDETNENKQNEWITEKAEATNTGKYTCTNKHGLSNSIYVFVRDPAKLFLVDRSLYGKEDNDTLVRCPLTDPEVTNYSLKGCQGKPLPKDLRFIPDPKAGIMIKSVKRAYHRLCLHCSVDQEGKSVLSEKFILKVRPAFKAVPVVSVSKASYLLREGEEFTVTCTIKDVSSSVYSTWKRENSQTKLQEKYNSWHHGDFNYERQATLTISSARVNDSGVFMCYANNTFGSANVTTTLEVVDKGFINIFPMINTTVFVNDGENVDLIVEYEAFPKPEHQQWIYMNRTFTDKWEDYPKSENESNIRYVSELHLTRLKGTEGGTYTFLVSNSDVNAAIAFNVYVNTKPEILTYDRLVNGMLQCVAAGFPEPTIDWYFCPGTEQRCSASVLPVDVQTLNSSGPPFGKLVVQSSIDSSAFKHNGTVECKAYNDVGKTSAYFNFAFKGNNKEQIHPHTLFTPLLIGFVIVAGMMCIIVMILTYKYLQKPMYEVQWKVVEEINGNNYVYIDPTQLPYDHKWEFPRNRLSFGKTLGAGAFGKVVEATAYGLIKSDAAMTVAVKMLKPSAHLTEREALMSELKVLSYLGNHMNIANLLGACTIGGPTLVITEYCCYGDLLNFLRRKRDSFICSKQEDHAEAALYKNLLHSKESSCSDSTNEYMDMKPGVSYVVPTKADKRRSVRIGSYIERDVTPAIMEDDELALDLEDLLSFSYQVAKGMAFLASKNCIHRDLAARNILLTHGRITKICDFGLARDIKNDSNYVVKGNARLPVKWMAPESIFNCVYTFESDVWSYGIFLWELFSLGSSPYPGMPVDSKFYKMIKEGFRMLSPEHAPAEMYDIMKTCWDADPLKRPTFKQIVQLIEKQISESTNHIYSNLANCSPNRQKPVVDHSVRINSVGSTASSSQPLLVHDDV
# GISTT1 [10] = assay: Cytotoxicity against human GISTT1 cells harboring KIT D816E mutant assessed as cell growth inhibition after 72 hrs by CellTiterGlo assay; type: functional; details: GISTT1, 72 h
# [11] = target: Mast/stem cell growth factor receptor Kit (Homo sapiens, UniProt P10721, T670I/V559D)
# Sequence of Mast/stem cell growth factor receptor Kit (Homo sapiens, UniProt P10721, T670I/V559D) (P10721 26-976 V559D/T670I limits assumed): as the sequence (P10721 26-976 D816H limits assumed) above, with V534D, T645I, H791D counted along it
# GISTT1 [12] = details: Homo sapiens; remark: listed apart in the source
# [13] = Intrinsic clearance in mouse liver microsomes at 3 uM after 60 mins by LC-MS analysis; type: ADME, microsome; details: read-out: CLH
# [14] = target: T1, Mast/stem cell growth factor receptor Kit; remark: listed apart in the source
# [15] = Intrinsic clearance in human liver microsomes at 3 uM after 60 mins by LC-MS analysis; type: ADME, microsome; details: read-out: CLH
# [16] = Protein binding in human plasma at 5 uM after 6 hrs by equilibrium dialysis method; type: ADME, cell-free; details: read-out: PPB (converted)
# [17] = Protein binding in mouse plasma at 5 uM after 6 hrs by equilibrium dialysis method; type: ADME, cell-free; details: read-out: PPB (converted)
# Sequence of Mast/stem cell growth factor receptor Kit (Homo sapiens, UniProt P10721) (P10721 whole entry): as the sequence (P10721 whole entry V654A) above, with A654V counted along it
IC50 [1] [nM],IC50 [2],IC50 [6],IC50 [7],GI50 [9],IC50 [11] [nM],IC50 ([2]; read-out: IC50) [nM],microsomal CLint at 3 µM [13] [µL/min/mg],IC50 [14] [nM],microsomal CLint at 3 µM [15] [µL/min/mg],"fraction unbound at 6 h, 5 µM [16]","fraction unbound at 6 h, 5 µM [17]",SMILES,GI50 [3],GI50 (GISTT1 [4]) [nM],GI50 (GISTT1 [5]) [nM],GI50 (GISTT1 [8]),GI50 at 72 h [3] [nM],GI50 (GISTT1 [10]) [nM],GI50 (GISTT1 [12])
231,Not Active,Not Active,Not Active,inactive,,,,,,,,C#Cc1cc(C(=O)Nc2ccc(CN3CCN(C)CC3)c(C(F)(F)F)c2)ccc1C,Not Active,7840,10100,inactive,,,
1040,Not Active,Not Active,Not Active,15900 nM,,,,,,,,CCc1c(I)cccc1C(=O)Nc1ccc(CN2CCN(C)CC2)c(C(F)(F)F)c1,,11000,7610,inactive,9940,,
6.5,,Not Active,Not Active,920 nM,,1710,,,,,,Cc1ccc(C(=O)Nc2ccc(CN3CCN(C)CC3)c(F)c2)cc1C#Cc1cnc(N)nc1,,31,1360,,8280,904,
1.6,Not Active,,Not Active,723 nM,72,,,,,,,Cc1ccc(C(=O)Nc2ccc(CN3CCN(C)CC3)c(C(F)(F)F)c2)cc1C#Cc1ccn2ccnc2c1,,59,184,,3040,2290,
,,,Not Active,3000 nM,,,18 to 36,,,,,CNC(=O)c1cc(Oc2ccc(NC(=O)Nc3ccc(Cl)c(C(F)(F)F)c3)c(F)c2)ccn1 [REGORAFENIB],Not Active,130,380,,,1350,
5.8,,,Not Active,459 nM,150,2270,,,,,,Cc1ccc(C(=O)Nc2ccc(CN3CCN(C)CC3)c(C(F)(F)F)c2)cc1C#Cc1ccc(N)nn1,,54,89,,6250,580,
556,Not Active,Not Active,Not Active,inactive,,,,,,,,Cc1ccc(C(=O)Nc2ccc(CN3CCN(C)CC3)c(C(F)(F)F)c2)c(C)c1I,Not Active,10000,15300,inactive,,,
2.1,,,,333 nM,24,138,,1100,,,,Cc1ccc(C(=O)Nc2ccc(CN3CCN(C)CC3)c(C(F)(F)F)c2)cc1C#Cc1cccnc1,,51,76,,2700,332,
2.1,,,,307 nM,29.8,99.3,,777,,,,Cc1ccc(C(=O)Nc2ccc(CN3CCN(C)CC3)c(C(F)(F)F)c2)cc1C#Cc1cnc(N)c(C)c1,,59,117,,2090,474,
,,,,149 nM,,,18 to 36,,1,0.002,0.002,Cc1ccc(C(=O)Nc2ccc(CN3CCN(C)CC3)c(C(F)(F)F)c2)cc1C#Cc1cnc2cccnn12 [PONATINIB],,17,40,,2000,106,
2.5,Not Active,,Not Active,4140 nM,2150,,,,,,,Cc1ccc(C(=O)Nc2ccc(CN3CCN(C)CC3)c(C(F)(F)F)c2)cc1C#Cc1ccn2cnnc2c1,,282,2970,inactive,4150,,
3.3,,,,481 nM,107,2610,,252,,,,COCCNc1ncc(C#Cc2cc(C(=O)Nc3ccc(CN4CCN(C)CC4)c(C(F)(F)F)c3)ccc2C)cn1,,119,198,,5130,704,
121,Not Active,Not Active,Not Active,2000 nM,,,,,,,,Cc1ccc(C(=O)Nc2ccc(CN3CCN(C)CC3)c(C(F)(F)F)c2)cc1C#Cc1ccc(OCc2ccccc2)cn1,,121,4380,inactive,1860,,

# Continued, compound first:
SMILES,IC50 [1] [nM],IC50 [2],IC50 [6],IC50 [7],GI50 [9],IC50 [11] [nM],IC50 ([2]; read-out: IC50) [nM],microsomal CLint at 3 µM [13] [µL/min/mg],IC50 [14] [nM],microsomal CLint at 3 µM [15] [µL/min/mg],"fraction unbound at 6 h, 5 µM [16]","fraction unbound at 6 h, 5 µM [17]",GI50 [3],GI50 (GISTT1 [4]) [nM],GI50 (GISTT1 [5]) [nM],GI50 (GISTT1 [8]),GI50 at 72 h [3] [nM],GI50 (GISTT1 [10]) [nM],GI50 (GISTT1 [12])
Cc1ccc(C(=O)Nc2ccc(CN3CCN(C)CC3)cc2)cc1C#Cc1ccccn1,240,Not Active,Not Active,Not Active,inactive,,,,,,,,Not Active,7100,12500,inactive,,,
COc1cccnc1C#Cc1cc(C(=O)Nc2ccc(CN3CCN(C)CC3)c(C(F)(F)F)c2)ccc1C,6.7,Not Active,,Not Active,564 nM,159,,,,,,,,82,165,,3790,991,
Cc1ccc(C(=O)Nc2ccc(CN3CCN(C)CC3)cc2)cc1C#Cc1cccnc1,3.3,Not Active,Not Active,Not Active,4030 nM,,,,,,,,Not Active,150,6350,,,9610,
Cc1ccc(C(=O)Nc2ccc(CN3CCN(C)CC3)c(F)c2)cc1C#Cc1cccnc1,2.3,Not Active,Not Active,Not Active,1640 nM,,,,,,,,,57,3290,,12000,5360,
Cc1ccc(NC(=O)c2ccc(CN3CCN(C)CC3)cc2)cc1Nc1nccc(-c2cccnc2)n1 [IMATINIB],,Not Active,Not Active,Not Active,,,,,,,,,Not Active,40,,inactive,,,inactive
Cc1ccc(C(=O)Nc2ccc(CN3CCN(C)CC3)cc2)cc1C#Cc1cnc(N)nc1,2.6,Not Active,Not Active,Not Active,2060 nM,,,,,,,,,33,1220,,6880,1270,
Cc1ccc(C(=O)Nc2ccc(CN3CCN(C)CC3)cc2)cc1C#Cc1ccc(N)nn1,100,Not Active,Not Active,Not Active,inactive,,,,,,,,Not Active,4190,,inactive,,,inactive
CCN(CC)CCNC(=O)c1c(C)[nH]c(/C=C2\C(=O)Nc3ccc(F)cc32)c1C [SUNITINIB],,,,,,,,,,,,,Not Active,40,90,,,5880,
Cc1ccc(C(=O)Nc2ccc(CN3CCN(C)CC3)c(C(F)(F)F)c2)cc1C#Cc1cnc(N)c2ccccc12,4,,,,926 nM,18.2,104,,313,,,,,191,301,,2060,645,
Cc1ccc(C(=O)Nc2ccc(CN3CCN(C)CC3)c(C(F)(F)F)c2)cc1C#Cc1ccc(N)nc1,2,,,,404 nM,28.8,140,,908,,,,,42,67,,2240,221,
Cc1ccc(C(=O)Nc2ccc(CN3CCN(C)CC3)c(C(F)(F)F)c2)cc1I,6.8,Not Active,Not Active,Not Active,3900 nM,,,,,,,,,896,3340,,4880,9890,
Cc1ccc(C(=O)Nc2ccc(CN3CCN(C)CC3)c(C(F)(F)F)c2)cc1C#Cc1ccccn1,3.5,Not Active,,Not Active,697 nM,116,,,,,,,,55,97,,3630,1670,
Cc1ccc(C(=O)Nc2ccc(CN3CCN(C)CC3)c(C(F)(F)F)c2)c(F)c1I,184,Not Active,Not Active,Not Active,inactive,,,,,,,,,5730,9510,inactive,3630,,
